# In patent US9079893B2, “Ureido-pyrazole derivatives for use in the treatment of respiratory syncitial virus (RSV) infection” (Respivert, Ltd., priority 2010, dated 2015):
# Like-named read-outs stand apart in the source and are kept apart here.
# Tests used:
# RSV Memphis 37 = test: RSV titre assay (CPE in Hep2) of air-liquid interface cultured primary nasal epithelial cells; assay type: cell-based, respiratory syncitial virus (RSV Memphis 37); details: primary 3D cultured nasal epithelial cells, RSV Memphis 37, log [TCID50], FIG. 2
# Procedure: Primary nasal epithelial cells, cultured using an air-liquid interface, were purchased from Epithelix Sarl (Geneva, Switzerland). Fresh, warmed media (200 μL) containing either the test compound at the selected concentration or vehicle (DMSO; final concentration of 0.5%) was transferred to the apical chamber, and fresh, warmed media (700 μL) containing either the test compound at the selected concentration or vehicle (DMSO; final concentration of 0.5%) were transferred to the bottom chamber. After incubation for 2 hr, the media in upper well was removed carefully. The following day, fresh, warmed media (200 μL) containing either the test compound at the selected concentration or vehicle (DMSO; final concentration of 0.5%) was transferred to the apical chamber again, and after incubation for 2 hr, the media was removed. On the third day, cells were treated again for 2 hr, and the media was removed. […]
# The virus titre was estimated by CPE assay in Hep2 cells as follows: Supernatant (20 μL) was collected and 10-fold serial dilutions were prepared in 5%-FBS DMEM. […] The resultant cytopathic effects (CPE) were assessed by visual inspection 3 days after infection. The amount of virus required to infect 50% of Hep2 cells was calculated for each treatment and is reported as log [TCID50] […]
# human RSV A2 = test: RSV virus load in mouse lung; assay type: in vivo, Balb/c mice; details: for Lung virus load (TCID50/g lung tissue ×10^3), day 3: 3 days post RSV infection; for Lung virus load (TCID50/g lung tissue ×10^3), day 5: 5 days post RSV infection; for Lung virus load (TCID50/g lung tissue ×10^3), day 7: 7 days post RSV infection; for inhibition of lung viral load: Day 5 post-infection (peak of virus titre), versus vehicle-dosed animals; for augmentation of viral load at Day 9: Day 9, when virus had been eliminated in vehicle-treated mice
# Procedure: Wild type, specific pathogen-free male Balb/c mice aged 8 weeks and weighing approximately 25 g were obtained from the Animal Resource Centre Pty. Ltd., Australia. On day zero, appropriate animal groups were anaesthetised with the inhalation anaesthetic methoxyfluorane and nasally inoculated with either virus diluent (low protein serum free VPSSM from Invitrogen) or 10^6 TCID50 units of human RSV A2 in a volume of 50 μL. […] Eleven to thirteen animals from each group were sacrificed on days 3, 5, 7 and 9 to enable lung viral load to be determined using a plaque assay (Table 5).
# [1] = test system: RSV F-protein expression in CF-BEC; test: RSV F-protein expression in CF-BEC (HBECs from patients with cystic fibrosis) infected with RSV; assay type: cell-based, respiratory syncitial virus (RSV A2); details: for CF-BEC E-max (%): test conc μg/mL: 0.0016-0.2 (Examples 1, 59), 0.04-0.2 (fluticasone propionate), 10 (ribavirin); for IC50: human respiratory syncytial virus, 96 h, read-out: CF-BEC IC50 (nM)
# Procedure: (§1) Normal human bronchial epithelial cells (NHBEC) grown in 96 well plates, were infected at a multiplicity of infection (MOI) of 0.001 with RSV A2 (Strain A2, HPA, Salisbury, UK;) in LHC8 Media: RPMI-1640 (50:50) containing 15 mM magnesium chloride, and incubated for 1 hr at 37° C. to promote adsorption. The cells were then washed with PBS to remove non-infected virus particle and incubated for 4 days in fresh media. As appropriate, cells were pre-incubated with the test compound or DMSO for 2 hr, and then added again after wash with PBS as shown above.
# (§2) The cells were fixed with 4% formaldehyde in PBS solution for 20 min, washed with washing buffer: PBS including 0.5% BSA and 0.05% Tween-20) (WB) and incubated with blocking solution (5% condensed milk in PBS) for 1 hr. Cells were then washed with WB and incubated for 1 hr at RT with anti-RSV (2F7) F-fusion protein antibody (mouse monoclonal) (lot 798760, Cat. No. ab43812, Abcam). After washing, cells were incubated with an HRP-conjugated secondary antibody (lot 00053170, Cat. No. P0447, Dako) and then TMB substrate (substrate reagent pack (lot 269472, Cat. No. DY999, R&D Systems, Inc.) was added.
# (§3) The reaction was stopped by the addition of 2NH2SO4 (50 μL) and the resultant signal was determined colorimetrically (OD: 450 nm with a reference wavelength of 655 nm) in a microplate reader (Varioskan® Flash, ThermoFisher Scientific). Cells were then washed and a 2.5% crystal violet solution (lot 8656, Cat. No. PL7000, Pro-Lab Diagnostics) was applied for 30 mins. After washing with WB, 100 μL of 1% SDS was added to each well, and plates were shaken lightly on the shaker for 1 hr prior to reading the absorbance at 595 nm. The measured OD450-655 readings were corrected to the cell number by dividing the OD450-655 by the OD595 readings. The percentage inhibition for each well was calculated and the IC50 value was calculated from the concentration-response curve generated by the serial dilutions of compound.
# (§4) HBECs obtained from patients with cystic fibrosis (CF-BEC) and Hep2 cells (human larynx epidermoid carcinoma cell line) were also used.
# [2] = test system: RSV Memphis 37 induced IL-8 release; test: RSV Memphis 37 induced IL-8 release in air-liquid interface cultured primary nasal epithelial cells; assay type: cell-based; details: primary 3D cultured nasal epithelial cells, RSV Memphis 37, FIG. 1
# Procedure: Primary nasal epithelial cells, cultured using an air-liquid interface, were purchased from Epithelix Sarl (Geneva, Switzerland). Fresh, warmed media (200 μL) containing either the test compound at the selected concentration or vehicle (DMSO; final concentration of 0.5%) was transferred to the apical chamber, and fresh, warmed media (700 μL) containing either the test compound at the selected concentration or vehicle (DMSO; final concentration of 0.5%) were transferred to the bottom chamber. After incubation for 2 hr, the media in upper well was removed carefully. The following day, fresh, warmed media (200 μL) containing either the test compound at the selected concentration or vehicle (DMSO; final concentration of 0.5%) was transferred to the apical chamber again, and after incubation for 2 hr, the media was removed. On the third day, cells were treated again for 2 hr, and the media was removed.
# The cells in the apical well were infected with 50 μL of RSV Memphis 37 virus (Meridian) 2 (producing an MOI of approximately 0.1 at the estimated cell number of 1×10^6/well) and incubated for 1 hr. The apical media was then removed by aspiration and the wells were washed twice with warmed PBS. The plate was incubated at 37° C. […]
# IL-8 concentrations were determined using a Duoset ELISA development kit (R&D Systems, Minneapolis, Minn.; FIG. 1)
# [3] = test system: RSV F-protein expression in NHBEC; test: RSV F-protein expression in NHBEC infected with RSV A2 (in vitro RSV virus load); assay type: cell-based, respiratory syncitial virus (RSV A2); details: for NHBEC E-max (%): test conc μg/mL: 0.0016-0.2 (Examples 1, 59), 0.04-0.2 (fluticasone propionate), 10 (ribavirin); for IC50 / inhibition at 0.04 µg/mL: human respiratory syncytial virus, 96 h; for inhibition at 0.04 µg/mL: read-out: % inhibition (at 0.04 μg/mL)
# Procedure: as §1, §2, §3
# [4] = test system: RSV F-protein expression in Hep2 cells; test: RSV F-protein expression in Hep2 cells infected with RSV; assay type: cell-based, respiratory syncitial virus (RSV A2); details: for Hep2 E-max (%): Hep2 cells, test conc μg/mL: 0.0016-0.2 (Examples 1, 59), 0.04-0.2 (fluticasone propionate), 10 (ribavirin); for IC50: human respiratory syncytial virus, HEp-2, 96 h
# Procedure: as §1, §2, §3, §4
# [5] = intra-tracheal 20 μL of 0.1 mg/mL, mean ± SEM
smiles,measurement,setting,value
"COCC(=O)Nc1cc(COc2ccc(NC(=O)Nc3cc(C(C)(C)C)nn3-c3ccc(C)cc3)c3ccccc23)ccn1 [Example 1, N-(4-((4-(3-(3-tert-Butyl-1-p-tolyl-1H-pyrazol-5-yl)ureido)naphthalen-1-yloxy)methyl)pyridin-2-yl)-2-methoxy acetamide]",inhibition on RSV viral load,RSV Memphis 37,strong inhibition
same,"Lung virus load (TCID50/g lung tissue ×10^3), day 3",human RSV A2; [5],66 ± 18 TCID50/g lung tissue ×10^3
same,"Lung virus load (TCID50/g lung tissue ×10^3), day 5",human RSV A2; [5],"1,545 ± 918^ TCID50/g lung tissue ×10^3"
same,"Lung virus load (TCID50/g lung tissue ×10^3), day 7",human RSV A2; [5],7.1 ± 5.2 TCID50/g lung tissue ×10^3
same,inhibition of lung viral load,human RSV A2,67%
same,augmentation of viral load at Day 9,human RSV A2,did not augment viral load
same,CF-BEC E-max (%),[1],84%
same,IC50,[1],69 nM
same,inhibition on RSV-induced IL-8 production,[2],strong inhibition
same,NHBEC E-max (%),[3],51%
same,IC50,[3],40.8 nM
same,inhibition at 0.04 µg/mL,[3],46.8%
same,IC50,[3]; read-out: NHBEC IC50 (nM),41 nM
same,Hep2 E-max (%),[4],24%
"Cc1ccc(-n2nc(C(C)(C)C)cc2NC(=O)Nc2ccc(OCCc3ccnc(NC(N)=O)c3)c3ccccc23)cc1 [Example 40, 4-(2-(4-(3-(3-tert-Butyl-1-p-tolyl-1H-pyrazol-5-yl)ureido)naphthalen-1-yloxy)ethyl)-3-(pyridin-2-yl)urea]",IC50,[3],103 nM
same,inhibition at 0.04 µg/mL,[3],24.9%
"Cc1ccc(-n2nc(C(C)(C)C)cc2NC(=O)Nc2ccc(Oc3ccnc(NC(=O)N4CCCC4)c3)c3ccccc23)cc1 [Example 65, N-(4-(4-(3-(3-tert-Butyl-1-p-tolyl-1H-pyrazol-5-yl)ureido)naphthalen-1-yloxy)pyridin-2-yl)pyrrolidine-1-carboxamide]",inhibition at 0.04 µg/mL,[3],56.5%
"COCC(=O)Nc1cc(Oc2ccc(NC(=O)Nc3cc(C(C)(C)C)nn3-c3ccc(C)cc3)c3ccccc23)ccn1 [Example 59, N-(4-(4-(3-(3-tert-Butyl-1-p-tolyl-1H-pyrazol-5-yl)ureido)naphthalen-1-yloxy)pyridin-2-yl)-2-methoxyacetamide]","Lung virus load (TCID50/g lung tissue ×10^3), day 3",human RSV A2; [5],81 ±29 TCID50/g lung tissue ×10^3
same,"Lung virus load (TCID50/g lung tissue ×10^3), day 5",human RSV A2; [5],448 ± 268 TCID50/g lung tissue ×10^3
same,"Lung virus load (TCID50/g lung tissue ×10^3), day 7",human RSV A2; [5],2.4 ± 0.8 TCID50/g lung tissue ×10^3
same,"Lung virus load (TCID50/g lung tissue ×10^3), day 9","human RSV A2; 9 days post RSV infection, intra-tracheal 20 μL of 0.1 mg/mL, mean ± SEM",0.3 ± 0.1 TCID50/g lung tissue ×10^3
same,inhibition of lung viral load,human RSV A2,90%
same,augmentation of viral load at Day 9,human RSV A2,did not augment viral load
same,CF-BEC E-max (%),[1],87%
same,IC50,[1],58 nM
same,NHBEC E-max (%),[3],78%
same,inhibition at 0.04 µg/mL,[3],67.5%
same,Hep2 E-max (%),[4],58%
same,IC50,[4]; read-out: Hep2 IC50 (nM),289 nM
"CCC(=O)O[C@]1(C(=O)SCF)[C@H](C)C[C@H]2[C@@H]3C[C@H](F)C4=CC(=O)C=C[C@]4(C)[C@@]3(F)[C@@H](O)C[C@@]21C [Fluticasone propionate, reference compound]",CF-BEC E-max (%),[1],10%
same,NHBEC E-max (%),[3],−38%
CNC(=O)Nc1cc(Oc2ccc(NC(=O)Nc3cc(C(C)(C)C)nn3-c3ccc(C)cc3)c3ccccc23)ccn1 [Example 88],inhibition at 0.04 µg/mL,[3],71.7%
"NC(=O)c1ncn([C@@H]2O[C@H](CO)[C@@H](O)[C@H]2O)n1 [Ribavirin, reference compound]",CF-BEC E-max (%),[1],53%
same,NHBEC E-max (%),[3],78%
same,Hep2 E-max (%),[4],93%
same,IC50,[4]; read-out: Hep2 IC50 (footnote a: μM),9000 nM
